Experimental data: US12201601B2, “Treatment for obesity” (Axsome Malta Ltd., priority 2013, dated 2025)

Experiments:
[1] = classic rat self-administration model
[2] = 6-month repeated dose oral toxicity study with 3-month recovery in rats: body weight; format: in vivo; settings: for Body weight gain (in words) / Body weight (in words): p<0.05-0.001; for Body weight after cessation of treatment (in words): recovery period; for Decreases in body weight gain at the end of the treatment period: conclusion over dose levels
Description: (§1) A 6-month repeated dose oral toxicity study with 3-month recovery was carried out in rats for R228060 (Formula Ib). Body weight and food consumption were monitored throughout the study.

[3] = 6-week randomized, double blind, active and placebo-controlled study in adult subjects with major depressive disorder: body weight; format: in vivo, Humans; settings: for Mean weight loss / Subjects with weight Decrease ≥7% / Subjects with weight Increase <7% / Subjects with weight Increase ≥7% / Subjects with weight No change/decrease <7% / Weight, Change from Baseline, Mean / Weight, Change from Baseline, Median: baseline to endpoint; for Weight, End point, Mean / Weight, End point, Median: 6-week study
Description: A 6-week randomized, double blind, parallel group, active and placebo-controlled study was carried out to assess the efficacy of R228060 in adult subjects with major depressive disorder (MDD). Body weight was monitored throughout the study.

[4] = 52-week repeated dose oral toxicity study with 13-week recovery in beagle dogs: body weight; format: in vivo; settings: for Body weight variation during the treatment-free period only (value in brackets, Table 1): Day 455
Description: (§2) A 52-week repeated dose oral toxicity study with 13-week recovery was carried out in beagle dogs for R228060 (Formula Ib). Body weight and food consumption were monitored throughout the study (see Table 1).

[5] = nonclinical studies in mice, rats, and dogs: body weight and food consumption; format: in vivo
[6] = 52-week repeated dose oral toxicity study in beagle dogs: food consumption; format: in vivo
Description: as §2

[7] = 6-month repeated dose oral toxicity study in rats: food consumption; format: in vivo
Description: as §1

[8] = female rats, 600/450 mg HCl-salt/kg
[9] = male rats, 600/450 mg HCl-salt/kg

SMILES: NC(=O)OC[C@H](N)Cc1ccccc1 [Formula R228060, (R)-(beta-amino-benzenepropyl) carbamate]
- Abuse potential: rewarding properties (in words) (place preference model): no significant rewarding properties
- Abuse potential: reinforcing properties (in words) [1]: not reinforcing
- Body weight and body weight gain (in words) ([2]; female rats, 35 mg HCl-salt/kg body weight/day oral for 6 consecutive months): did not adversely affect body weight and body weight gain
- Body weight gain decreased compared to the control group ([2]; female rats, 300 mg HCl-salt/kg body weight/day oral, week 13): 15%
- Body weight gain decreased compared to the control group ([2]; female rats, 300 mg HCl-salt/kg body weight/day oral, week 26): 23%
- Body weight gain (in words) ([2]; female rats, 300 mg HCl-salt/kg body weight/day, especially towards end of dosing period): moderate to pronounced decrease
- Body weight (in words) ([2]; female rats, 300 mg HCl-salt/kg body weight/day): moderately decreased body weight
- Remaining body weight difference at the end of the recovery period compared to control animals (in words) [2, 8]: only slightly lower
- Body weight gain decreased ([2]; female rats, 600/450 mg HCl-salt/kg body weight/day oral, week 13): 18%
- Body weight gain decreased ([2]; female rats, 600/450 mg HCl-salt/kg body weight/day oral, week 26): 21%
- Body weight gain (in words) ([2]; female rats, 600/450 mg HCl-salt/kg body weight/day, from first week of dosing): moderate to pronounced decrease in body weight gain
- Body weight (in words) ([2]; female rats, 600/450 mg HCl-salt/kg body weight/day): moderately decreased body weight
- Body weight after cessation of treatment (in words) [2, 8]: partial regain of their normal body weight
- Decreases in body weight gain at the end of the treatment period ([2]; female rats): ≤ 21%
- Body weight gain decreased ([2]; male rats, 35 mg HCl-salt/kg body weight/day oral, week 13, vs control): 6%
- Body weight gain decreased ([2]; male rats, 35 mg HCl-salt/kg body weight/day oral, week 26, vs control): 5%
- Body weight and weight gain (in words) ([2]; male rats, 35 mg HCl-salt/kg body weight/day, significant weeks 8-12 (gain) and 10-12 (weight), p<0.05): slightly lower compared to control rats
- Body weight gain decreased ([2]; male rats, 300 mg HCl-salt/kg body weight/day oral, week 13): 27%
- Body weight gain decreased ([2]; male rats, 300 mg HCl-salt/kg body weight/day oral, week 26): 24%
- Body weight and body weight gain (in words) ([2]; male rats, 300 mg HCl-salt/kg body weight/day, from first week of dosing, p<0.001): pronounced decrease in body weight and body weight gain
- Body weight at the end of the three month recovery period compared to control animals (in words) [2, 9]: still moderately lower
- Body weight gain decreased ([2]; male rats, 600/450 mg HCl-salt/kg body weight/day oral, week 13): 33%
- Body weight gain decreased ([2]; male rats, 600/450 mg HCl-salt/kg body weight/day oral, week 26): 32%
- Body weight and body weight gain (in words) ([2]; male rats, 600/450 mg HCl-salt/kg body weight/day, from week 1 onwards, p<0.001): pronounced decrease in body weight and body weight gain
- Body weight after cessation of treatment (in words) [2, 9]: partial regain of their normal (control) body weight
- Decreases in body weight gain at the end of the treatment period ([2]; male rats): up to 32%
- Body weights and body weight gains (conclusion in words) ([2]; rats, starting at 35 mg HCl-salt/kg body weight/day for males and 300 for females): dose-related decrease
- Weight relative to placebo treated patients (in words) ([3]; 6-week clinical study in major depressive disorder patients): dose-related decrease in weight relative to placebo treated patients
- Number of subjects with a decrease in weight of 7% or more ([3]; 200-mg group): 1 subjects
- Percentage of subjects with a decrease in weight of 7% or more ([3]; 200-mg group): 0.9%
- Mean weight loss ([3]; 200-mg group): 0.6 kg
- Number of subjects with a decrease in weight of 7% or more ([3]; 400-mg group): 3 subjects
- Percentage of subjects with a decrease in weight of 7% or more ([3]; 400-mg group): 2.5%
- Mean weight loss ([3]; 400-mg group): 0.9 kg
- Mean change from baseline to endpoint in BMI ([3]; R228060 200 mg): −0.2 kg/m^2
- Subjects with weight Decrease ≥7% ([3]; R228060 200 mg (N = 116)): 1 (0.9) n (%)
- Subjects with weight Increase <7% ([3]; R228060 200 mg (N = 116)): 39 (33.6) n (%)
- Subjects with weight Increase ≥7% ([3]; R228060 200 mg (N = 116)): 1 (0.9) n (%)
- Subjects with weight No change/decrease <7% ([3]; R228060 200 mg (N = 116)): 75 (64.7) n (%)
- Weight, End point, Mean ([3]; R228060 200 mg group): 85.4 kg
- Weight, End point, Median ([3]; R228060 200 mg group): 83.4 kg
- Weight, Change from Baseline, Mean ([3]; R228060 200 mg group): -0.6 kg
- Weight, Change from Baseline, Median ([3]; R228060 200 mg group): -0.5 kg
- Mean change from baseline to endpoint in BMI ([3]; R228060 400 mg): −0.3 kg/m^2
- Subjects with weight Decrease ≥7% ([3]; R228060 400 mg (N = 120)): 3 (2.5) n (%)
- Subjects with weight Increase <7% ([3]; R228060 400 mg (N = 120)): 27 (22.5) n (%)
- Subjects with weight Increase ≥7% ([3]; R228060 400 mg (N = 120)): 0 n (%)
- Subjects with weight No change/decrease <7% ([3]; R228060 400 mg (N = 120)): 90 (75.0) n (%)
- Weight, End point, Mean ([3]; R228060 400 mg group): 83.2 kg
- Weight, End point, Median ([3]; R228060 400 mg group): 78.9 kg
- Weight, Change from Baseline, Mean ([3]; R228060 400 mg group): -0.9 kg
- Weight, Change from Baseline, Median ([3]; R228060 400 mg group): -0.9 kg
- Reporting of anorexia (in words) ([3]; compound-treated groups, 6-week clinical study): increase in reporting of anorexia
- Body weight change (Table 1) ([4]; dogs, 10 mg/kg bw/day, females, Day 4): −6%
- Body weight change (Table 1) ([4]; dogs, 10 mg/kg bw/day, females, Day 21): −2%
- Body weight change (Table 1) ([4]; dogs, 10 mg/kg bw/day, females, Day 182): +26%
- Body weight change (Table 1) ([4]; dogs, 10 mg/kg bw/day, females, Day 364): +25%
- Body weight change (Table 1) ([4]; dogs, 10 mg/kg bw/day, males, Day 4): −1%
- Body weight change (Table 1) ([4]; dogs, 10 mg/kg bw/day, males, Day 21): 0%
- Body weight change (Table 1) ([4]; dogs, 10 mg/kg bw/day, males, Day 182): +22%
- Body weight change (Table 1) ([4]; dogs, 10 mg/kg bw/day, males, Day 364): +32%
- Body weight change (Table 1) ([4]; dogs, 25 mg/kg bw/day, females, Day 4): −7%
- Body weight change (Table 1) ([4]; dogs, 25 mg/kg bw/day, females, Day 21): −4%
- Body weight change (Table 1) ([4]; dogs, 25 mg/kg bw/day, females, Day 182): +16%
- Body weight change (Table 1) ([4]; dogs, 25 mg/kg bw/day, females, Day 364): +26%
- Body weight change (Table 1) ([4]; dogs, 25 mg/kg bw/day, males, Day 4): −4%
- Body weight change (Table 1) ([4]; dogs, 25 mg/kg bw/day, males, Day 21): −4%
- Body weight change (Table 1) ([4]; dogs, 25 mg/kg bw/day, males, Day 182): +71%
- Body weight change (Table 1) ([4]; dogs, 25 mg/kg bw/day, males, Day 364): +19%
- Body weight change (Table 1) ([4]; dogs, 50 mg/kg bw/day, females, Day 4): −9%
- Body weight change (Table 1) ([4]; dogs, 50 mg/kg bw/day, females, Day 21): −12%
- Body weight change (Table 1) ([4]; dogs, 50 mg/kg bw/day, females, Day 182): +11%
- Body weight change (Table 1) ([4]; dogs, 50 mg/kg bw/day, females, Day 364): +9%
- Body weight variation during the treatment-free period only (value in brackets, Table 1) ([4]; dogs, 50 mg/kg bw/day, females): +26% (+26%)
- Body weight change (Table 1) ([4]; dogs, 50 mg/kg bw/day, females, Day 455 (end of treatment-free period)): +26% (+26%)
- Body weight change (Table 1) ([4]; dogs, 50 mg/kg bw/day, males, Day 4): −9%
- Body weight change (Table 1) ([4]; dogs, 50 mg/kg bw/day, males, Day 21): −12%
- Body weight change (Table 1) ([4]; dogs, 50 mg/kg bw/day, males, Day 182): +7%
- Body weight change (Table 1) ([4]; dogs, 50 mg/kg bw/day, males, Day 364): +9%
- Body weight variation during the treatment-free period only (value in brackets, Table 1) ([4]; dogs, 50 mg/kg bw/day, males): +6%
- Body weight change (Table 1) ([4]; dogs, 50 mg/kg bw/day, males, Day 455 (end of treatment-free period)): +12%
- Mean body weight gain compared to control (in words) ([4]; dogs, treated groups, days 182 and 364): lower does-relative mean body weight gain
- Day on which weight returned to the initial weight ([4]; female dogs, 10 mg/kg bw/day): 28 days
- Mean body weight loss ([4]; female dogs, 10 mg/kg bw/day, first 4 days of treatment): 0.4 kg
- Day on which weight returned to the initial weight ([4]; female dogs, 25 mg/kg bw/day): 42 days
- Mean body weight loss ([4]; female dogs, 25 mg/kg bw/day, first 4 days of treatment): 0.5 kg
- Mean body weight loss ([4]; female dogs, 50 mg/kg bw/day, first 4 days of treatment): 0.7 kg
- Body weight gain during the treatment-free period compared to controls (in words) ([4]; group 4 females): higher body weight gain
- Body weight gain during the treatment-free period compared to controls (in words) ([4]; group 4 males): only slightly higher
- Day on which weight returned to the initial weight ([4]; high dose female group (50 mg/kg bw/day)): 77 days
- Mean body weight loss ([4]; high dose female group (50 mg/kg bw/day), day 21): 0.8 kg
- Day on which weights returned to the initial values ([4]; high dose male group (50 mg/kg bw/day)): 126 days
- Mean body weight loss ([4]; high dose male group (50 mg/kg bw/day), day 21): 0.8 kg
- Day on which weights returned to initial weights ([4]; male dogs, 25 mg/kg bw/day): 35 days
- Mean body weight loss ([4]; male dogs, 25 mg/kg bw/day, first 4 days of treatment): 0.3 kg
- Mean body weight loss ([4]; male dogs, 50 mg/kg bw/day, first 4 days of treatment): 0.7 kg
- Body weight, body weight gain and food consumption (in words) [5]: decreases in body weight and/or body weight gain as well as reductions in food consumption
- Food consumption (in words) ([6]; all female dogs, 50 mg/kg bw/day, first week of treatment): lower food consumption, which was marked for 3/6 animals
- Food consumption during the treatment-free period (in words) ([6]; dogs, any animal): No effect on food consumption
- Lower food consumption ([6]; female dogs, 25 mg/kg bw/day, first week of treatment): −25 to −50 % of the daily portion
- Reduced food consumption ([6]; male dogs, 50 mg/kg bw/day, mainly first week of treatment): about −50 % of the daily portion
- Reduced food consumption compared to control ([6]; one male dog, 25 mg/kg bw/day, first week of treatment): about −40%
- Slightly lower food consumption ([6]; three out of four female dogs, 10 mg/kg bw/day, first week of treatment): about −25 % of the daily portion
- Statistically significant increases in food consumption (assessment in words) ([7]; female rats, 35, 300 and 600/450 mg HCl-salt/kg body weight level): toxicologically irrelevant
- Food consumption (significance, in words) ([7]; rats, 300 and 600/450 mg HCl-salt/kg body weight level): statistically significant decreases
- Food consumption (in words) ([7]; rats, both sexes, first weeks of dosing, starting at 35 mg HCl-salt/kg body weight/day for males and 300 for females): dose-related decrease in food consumption
